A short description of this series: activity coefficient (dimensionless); of the first substance listed, at infinite dilution; xn = mol fraction of the nth substance listed. Conditions: 101 kPa, Liquid, Chromatography, x1 = 0.

± gives the expanded uncertainty stated by the source.

As for `Cc1ccccc1C` [1,2-dimethylbenzene] + CCCCCCOCn1cc[n+](C)c1.O=S(=O)([N-]S(=O)(=O)C(F)(F)F)C(F)(F)F, the activity coefficient is 1.33 ± 0.086 (318.15 K); 1.34 ± 0.087 (328.15 K); 1.35 ± 0.087 (338.15 K); 1.35 ± 0.088 (348.15 K); 1.36 ± 0.088 (358.15 K); 1.36 ± 0.089 (368.15 K).
For `Cc1ccccc1C` [1,2-dimethylbenzene] + CCCCCCOCn1cc[n+](COCCCCCC)c1.O=S(=O)([N-]S(=O)(=O)C(F)(F)F)C(F)(F)F, the activity coefficient by setting is: (318.15 K) 0.89 ± 0.057; (328.15 K) 0.891 ± 0.057; (338.15 K) 0.892 ± 0.057; (348.15 K) 0.894 ± 0.057; (358.15 K) 0.895 ± 0.057; (368.15 K) 0.896 ± 0.057.
On to `Cc1cccc(C)c1` [1,3-dimethylbenzene] + CCCCCCOCn1cc[n+](C)c1.O=S(=O)([N-]S(=O)(=O)C(F)(F)F)C(F)(F)F, for which the activity coefficient worked out at 1.45 ± 0.095 (318.15 K); 1.46 ± 0.096 (328.15 K); 1.47 ± 0.096 (338.15 K); 1.48 ± 0.097 (348.15 K); 1.48 ± 0.098 (358.15 K); 1.49 ± 0.098 (368.15 K).
Take `Cc1cccc(C)c1` [1,3-dimethylbenzene] + CCCCCCOCn1cc[n+](COCCCCCC)c1.O=S(=O)([N-]S(=O)(=O)C(F)(F)F)C(F)(F)F: the activity coefficient (318.15 K) amounted to 0.944 ± 0.06; the activity coefficient (328.15 K) worked out at 0.946 ± 0.06; the activity coefficient (338.15 K) was found to be 0.948 ± 0.06; the activity coefficient (348.15 K) turned out to be 0.951 ± 0.06; the activity coefficient (358.15 K) amounted to 0.953 ± 0.06; the activity coefficient (368.15 K) was determined as 0.955 ± 0.06.
Regarding `Cc1ccc(C)cc1` [1,4-dimethylbenzene] + CCCCCCOCn1cc[n+](C)c1.O=S(=O)([N-]S(=O)(=O)C(F)(F)F)C(F)(F)F, the activity coefficient was found to be 1.46 ± 0.096 (318.15 K); 1.47 ± 0.097 (328.15 K); 1.48 ± 0.097 (338.15 K); 1.49 ± 0.098 (348.15 K); 1.5 ± 0.098 (358.15 K); 1.5 ± 0.099 (368.15 K).
On to `Cc1ccc(C)cc1` [1,4-dimethylbenzene] + CCCCCCOCn1cc[n+](COCCCCCC)c1.O=S(=O)([N-]S(=O)(=O)C(F)(F)F)C(F)(F)F, for which the activity coefficient (318.15 K) is 0.949 ± 0.06; the activity coefficient (328.15 K) was found to be 0.952 ± 0.06; the activity coefficient (338.15 K) is 0.955 ± 0.06; the activity coefficient (348.15 K) was determined as 0.958 ± 0.06; the activity coefficient (358.15 K) amounted to 0.96 ± 0.06; the activity coefficient (368.15 K) amounted to 0.962 ± 0.06.
For `C=CCCCCC` [1-heptene] + CCCCCCOCn1cc[n+](C)c1.O=S(=O)([N-]S(=O)(=O)C(F)(F)F)C(F)(F)F, the activity coefficient came to 6.16 ± 0.42 (298.15 K); 5.96 ± 0.41 (308.15 K); 5.79 ± 0.39 (318.15 K); 5.61 ± 0.38 (328.15 K); 5.44 ± 0.37 (338.15 K); 5.3 ± 0.36 (348.15 K). For the same compound, the activity coefficient is, setting by setting: (358.15 K) 5.18 ± 0.35; (368.15 K) 5.05 ± 0.34.
Consider `C=CCCCCC` [1-heptene] + CCCCCCOCn1cc[n+](COCCCCCC)c1.O=S(=O)([N-]S(=O)(=O)C(F)(F)F)C(F)(F)F, for which the activity coefficient was 2.7 ± 0.18 (298.15 K); 2.64 ± 0.18 (308.15 K); 2.59 ± 0.18 (318.15 K); 2.54 ± 0.17 (328.15 K); 2.49 ± 0.17 (338.15 K); 2.45 ± 0.17 (348.15 K). The activity coefficient by setting is: (358.15 K) 2.41 ± 0.16; (368.15 K) 2.37 ± 0.16.
As to `C#CCCCCC` [1-heptyne] + CCCCCCOCn1cc[n+](C)c1.O=S(=O)([N-]S(=O)(=O)C(F)(F)F)C(F)(F)F, the activity coefficient came to 2.44 ± 0.17 (298.15 K); 2.45 ± 0.17 (308.15 K); 2.45 ± 0.17 (318.15 K); 2.46 ± 0.17 (328.15 K); 2.47 ± 0.17 (338.15 K); 2.48 ± 0.17 (348.15 K). For the same compound, the activity coefficient turned out to be 2.48 ± 0.17 (358.15 K) and 2.49 ± 0.17 (368.15 K).
On to `C#CCCCCC` [1-heptyne] + CCCCCCOCn1cc[n+](COCCCCCC)c1.O=S(=O)([N-]S(=O)(=O)C(F)(F)F)C(F)(F)F, for which the activity coefficient amounted to 1.37 ± 0.089 (298.15 K); 1.38 ± 0.09 (308.15 K); 1.39 ± 0.09 (318.15 K); 1.39 ± 0.091 (328.15 K); 1.4 ± 0.091 (338.15 K); 1.4 ± 0.092 (348.15 K). Moreover, the activity coefficient (358.15 K) amounted to 1.41 ± 0.092 and the activity coefficient (368.15 K) came out at 1.42 ± 0.093.
As for `C#CCCCC` [1-hexyne] + CCCCCCOCn1cc[n+](C)c1.O=S(=O)([N-]S(=O)(=O)C(F)(F)F)C(F)(F)F, the activity coefficient by setting is: (298.15 K) 1.93 ± 0.13; (308.15 K) 1.94 ± 0.13; (318.15 K) 1.95 ± 0.13; (328.15 K) 1.96 ± 0.13; (338.15 K) 1.97 ± 0.13; (348.15 K) 1.98 ± 0.13. Besides, the activity coefficient (358.15 K) came out at 1.98 ± 0.13 and the activity coefficient (368.15 K) came to 1.99 ± 0.14.
As to `C#CCCCC` [1-hexyne] + CCCCCCOCn1cc[n+](COCCCCCC)c1.O=S(=O)([N-]S(=O)(=O)C(F)(F)F)C(F)(F)F, the activity coefficient reads like this: (298.15 K) 1.16 ± 0.074; (308.15 K) 1.17 ± 0.075; (318.15 K) 1.17 ± 0.075; (328.15 K) 1.18 ± 0.075; (338.15 K) 1.18 ± 0.076; (348.15 K) 1.19 ± 0.076. The activity coefficient amounted to 1.19 ± 0.076 (358.15 K) and 1.19 ± 0.076 (368.15 K).
Turning to `C#CCCCCCC` [1-octyne] + CCCCCCOCn1cc[n+](C)c1.O=S(=O)([N-]S(=O)(=O)C(F)(F)F)C(F)(F)F, the activity coefficient runs as follows: (298.15 K) 3.15 ± 0.21; (308.15 K) 3.14 ± 0.21; (318.15 K) 3.13 ± 0.21; (328.15 K) 3.13 ± 0.21; (338.15 K) 3.12 ± 0.21; (348.15 K) 3.11 ± 0.21. The activity coefficient was 3.11 ± 0.21 (358.15 K) and 3.1 ± 0.21 (368.15 K).
Turning to `C#CCCCCCC` [1-octyne] + CCCCCCOCn1cc[n+](COCCCCCC)c1.O=S(=O)([N-]S(=O)(=O)C(F)(F)F)C(F)(F)F, the activity coefficient (298.15 K) is 1.65 ± 0.11; the activity coefficient (308.15 K) turned out to be 1.66 ± 0.11; the activity coefficient (318.15 K) came to 1.66 ± 0.11; the activity coefficient (328.15 K) worked out at 1.66 ± 0.11; the activity coefficient (338.15 K) turned out to be 1.67 ± 0.11; the activity coefficient (348.15 K) came out at 1.67 ± 0.11. The activity coefficient (358.15 K) is 1.67 ± 0.11 and the activity coefficient (368.15 K) was determined as 1.67 ± 0.11.
For `C=CCCC` [1-pentene] + CCCCCCOCn1cc[n+](C)c1.O=S(=O)([N-]S(=O)(=O)C(F)(F)F)C(F)(F)F, the activity coefficient is, setting by setting: (298.15 K) 3.96 ± 0.27; (308.15 K) 3.86 ± 0.26; (318.15 K) 3.77 ± 0.26; (328.15 K) 3.69 ± 0.25; (338.15 K) 3.61 ± 0.25; (348.15 K) 3.53 ± 0.24. Further, the activity coefficient came to 3.47 ± 0.24 (358.15 K) and 3.41 ± 0.23 (368.15 K).
In the case of `C=CCCC` [1-pentene] + CCCCCCOCn1cc[n+](COCCCCCC)c1.O=S(=O)([N-]S(=O)(=O)C(F)(F)F)C(F)(F)F, the activity coefficient was determined as 1.9 ± 0.13 (298.15 K); 1.87 ± 0.13 (308.15 K); 1.83 ± 0.12 (318.15 K); 1.8 ± 0.12 (328.15 K); 1.77 ± 0.12 (338.15 K); 1.75 ± 0.12 (348.15 K). Moreover, the activity coefficient is, setting by setting: (358.15 K) 1.72 ± 0.12; (368.15 K) 1.7 ± 0.11.

The record behind these values is the NIST ThermoML archive (doi:10.1016/j.fluid.2009.08.017).
